# Measured values reported in patent US10758534B2 (Vertex Pharmaceuticals Incorporated, priority 2014, dated 2020).
# Molecular target: T1, F508del (Homo sapiens, UniProt P13569, DEL508-508)
# T1 construct: expressed in transfected cells
# Assay: Protocol 1: membrane potential optical assay (FLIPR III, voltage sensing dye), identification of potentiator compounds
# Type: cell-based
# Conditions: Table 3, compounds of Table 1
# In short: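 NIH 3T3 fibroblasts stably expressing F508del were cultured at 27° C for 24 hrs for temperature correction, then treated with compounds or DMSO and loaded with a voltage-sensing redistribution dye. Forskolin added with a Cl⁻ gradient activated the channel; membrane-potential fluorescence on FLIPR III reported increased gating.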
# T1 sequence (P13569 with tags, fused parts or gaps DEL508-508): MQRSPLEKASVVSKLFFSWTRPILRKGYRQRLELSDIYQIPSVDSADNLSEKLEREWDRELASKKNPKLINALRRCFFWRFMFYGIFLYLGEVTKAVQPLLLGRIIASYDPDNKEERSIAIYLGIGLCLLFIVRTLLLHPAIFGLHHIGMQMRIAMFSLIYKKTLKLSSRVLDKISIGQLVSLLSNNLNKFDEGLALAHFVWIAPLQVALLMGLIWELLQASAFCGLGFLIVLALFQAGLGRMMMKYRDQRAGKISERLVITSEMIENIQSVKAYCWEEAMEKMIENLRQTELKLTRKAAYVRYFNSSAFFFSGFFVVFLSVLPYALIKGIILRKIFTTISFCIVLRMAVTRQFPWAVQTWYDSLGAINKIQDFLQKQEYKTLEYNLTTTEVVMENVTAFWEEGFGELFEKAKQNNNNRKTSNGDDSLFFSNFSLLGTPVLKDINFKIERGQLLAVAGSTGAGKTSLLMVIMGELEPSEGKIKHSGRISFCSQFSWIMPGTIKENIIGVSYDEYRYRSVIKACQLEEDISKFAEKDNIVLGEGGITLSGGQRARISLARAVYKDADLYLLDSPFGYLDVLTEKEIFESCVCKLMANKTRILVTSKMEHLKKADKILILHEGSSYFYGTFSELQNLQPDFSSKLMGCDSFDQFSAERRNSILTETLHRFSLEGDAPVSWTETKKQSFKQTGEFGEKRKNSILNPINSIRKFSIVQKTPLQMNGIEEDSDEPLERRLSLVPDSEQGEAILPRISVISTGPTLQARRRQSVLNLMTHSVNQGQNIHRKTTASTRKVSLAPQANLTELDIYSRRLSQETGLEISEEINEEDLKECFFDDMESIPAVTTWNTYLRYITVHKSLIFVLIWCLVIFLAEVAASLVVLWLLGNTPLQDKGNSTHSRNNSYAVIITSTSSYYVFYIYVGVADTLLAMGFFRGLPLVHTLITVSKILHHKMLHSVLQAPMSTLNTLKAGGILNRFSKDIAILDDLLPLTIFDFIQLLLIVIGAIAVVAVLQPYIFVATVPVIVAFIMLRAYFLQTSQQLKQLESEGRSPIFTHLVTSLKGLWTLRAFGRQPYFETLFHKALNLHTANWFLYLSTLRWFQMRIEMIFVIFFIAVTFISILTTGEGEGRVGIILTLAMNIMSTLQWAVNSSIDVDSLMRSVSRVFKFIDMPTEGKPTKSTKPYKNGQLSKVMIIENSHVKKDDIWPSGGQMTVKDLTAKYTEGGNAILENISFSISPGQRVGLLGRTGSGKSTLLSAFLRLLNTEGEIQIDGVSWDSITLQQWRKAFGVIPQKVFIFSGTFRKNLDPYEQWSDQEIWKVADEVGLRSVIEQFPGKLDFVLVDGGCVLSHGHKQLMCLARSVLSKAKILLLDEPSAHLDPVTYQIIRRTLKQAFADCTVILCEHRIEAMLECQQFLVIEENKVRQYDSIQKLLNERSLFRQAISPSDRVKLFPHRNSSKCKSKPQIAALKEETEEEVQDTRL
row,Compound,EC30
1,"CC1CN(c2ncccc2C(=O)NS(=O)(=O)c2cccc(OCCc3ccc(F)cc3)n2)C(C)(C)C1 (stereo not shown) [Compound 1704, N—[[6-[2-(4-fluorophenyl)ethoxy]-2-pyridyl]sulfonyl]-2-(2,2,4-trimethylpyrrolidin-1-yl)pyridine-3-carboxamide]",+++ (“+++” means <3 uM)
2,"C[C@@H]1CN(c2ncc(C(F)(F)F)cc2C(=O)NS(=O)(=O)c2cccc(N)n2)C(C)(C)C1 [Compound 1550, N-[(6-amino-2-pyridyl)sulfonyl]-5-(trifluoromethyl)-2-[(4S)-2,2,4-trimethylpyrrolidin-1-yl]pyridine-3-carboxamide]",++ (“++” means between 3 uM and 10 uM)
3,"CCc1cnc2c(c1)cc(C(=O)NS(=O)(=O)c1cccc(N)n1)n2Cc1c(C)cc(C)cc1C [Compound 816, N-[(6-amino-2-pyridyl)sulfonyl]-5-ethyl-1-[(2,4,6-trimethylphenyl)methyl]pyrrolo[2,3-b]pyridine-2-carboxamide]",++ (“++” means between 3 uM and 10 uM)
4,"CC(C)COc1cc(F)cc(-c2ccc(C(=O)NS(=O)(=O)N3CC[C@@H](N)C3)c(N3C[C@@H](C)CC3(C)C)n2)c1 [Compound 1360, N-[(3R)-3-aminopyrrolidin-1-yl]sulfonyl-6-(3-fluoro-5-isobutoxy-phenyl)-2-[(4S)-2,2,4-trimethylpyrrolidin-1-yl]pyridine-3-carboxamide]",+++ (“+++” means <3 uM)
5,"CC(C)COc1cc(F)cc(-c2ccc(C(=O)NS(=O)(=O)c3cccc(N)n3)c(N3CCCC4(CCC4)C3)n2)c1 [Compound 1264, N-[(6-amino-2-pyridyl)sulfonyl]-2-(8-azaspiro[3.5]nonan-8-yl)-6-(3-fluoro-5-isobutoxy-phenyl)pyridine-3-carboxamide]",+++ (“+++” means <3 uM)
6,"COc1ccc(-c2cnc(N3CC(C)CC3(C)C)c(C(=O)NS(=O)(=O)c3cccc(N)n3)c2)cc1 (stereo not shown) [Compound 1792, N-[(6-amino-2-pyridyl)sulfonyl]-5-(4-methoxyphenyl)-2-(2,2,4-trimethylpyrrolidin-1-yl)pyridine-3-carboxamide]",+++ (“+++” means <3 uM)
7,"Cc1cc(C)c(Cn2nc(C(C)(C)C)cc2C(=O)NS(=O)(=O)c2cn(C)cn2)c(C)c1 [Compound 1568, 5-tert-butyl-N-(1-methylimidazol-4-yl)sulfonyl-2-[(2,4,6-trimethylphenyl)methyl]pyrazole-3-carboxamide]",+++ (“+++” means <3 uM)
8,"CC(C)COc1cc(F)cc(-c2ccc(C(=O)NS(=O)(=O)c3cccc(N)n3)c(OCC3CCOC3)n2)c1 (stereo not shown) [Compound 1499, N-[(6-amino-2-pyridyl)sulfonyl]-6-(3-fluoro-5-isobutoxy-phenyl)-2-(tetrahydrofuran-3-ylmethoxy)pyridine-3-carboxamide]",++ (“++” means between 3 uM and 10 uM)
9,"Cc1cc(C)c(Oc2cc(-c3cc(F)cc(OCC(C)C)c3)ccc2C(=O)NS(=O)(=O)c2cccc(N)n2)c(C)c1 [Compound 1549, N-[(6-amino-2-pyridyl)sulfonyl]-4-(3-fluoro-5-isobutoxy-phenyl)-2-(2,4,6-trimethylphenoxy)benzamide]",+++ (“+++” means <3 uM)
10,"C[C@@H]1CN(c2nc(-c3cc(O)cc(F)c3)ccc2C(=O)NS(=O)(=O)c2ccccc2)C(C)(C)C1 [Compound 1538, N-(benzenesulfonyl)-6-(3-fluoro-5-hydroxy-phenyl)-2-[(4S)-2,2,4-trimethylpyrrolidin-1-yl]pyridine-3-carboxamide]",+ (“+” means greater than 10 uM)
11,"CC(C)COc1cc(F)cc(-c2ccc(C(=O)NS(=O)(=O)c3cccc(N)n3)c(N(C)C(C)c3cccc(Cl)c3)n2)c1 (stereo not shown) [Compound 1205, N-[(6-amino-2-pyridyl)sulfonyl]-2-[1-(3-chlorophenyl)ethyl-methyl-amino]-6-(3-fluoro-5-isobutoxy-phenyl)pyridine-3-carboxamide]",+++ (“+++” means <3 uM)
12,"Cc1cc(C)c(CN2C(C(=O)NS(=O)(=O)c3cccc(N)n3)c3ccccc3C2(C)C)c(C)c1 (stereo not shown) [Compound 1101, N-[(6-amino-2-pyridyl)sulfonyl]-3,3-dimethyl-2-[(2,4,6-trimethylphenyl)methyl]isoindoline-1-carboxamide]",+++ (“+++” means <3 uM)
13,"CC1CN(c2ncccc2C(=O)NS(=O)(=O)c2cccc(OCC3CCCO3)n2)C(C)(C)C1 (stereo not shown) [Compound 1764, N—[[6-(tetrahydrofuran-2-ylmethoxy)-2-pyridyl]sulfonyl]-2-(2,2,4-trimethylpyrrolidin-1-yl)pyridine-3-carboxamide]",++ (“++” means between 3 uM and 10 uM)
14,"CC(C)COc1cc(F)cc(-c2ccc(C(=O)NS(=O)(=O)c3cccc(N)n3)c(N3CCCC(C(C)C)C3)n2)c1 (stereo not shown) [Compound 1098, N-[(6-amino-2-pyridyl)sulfonyl]-6-(3-fluoro-5-isobutoxy-phenyl)-2-(3-isopropyl-1-piperidyl)pyridine-3-carboxamide]",+++ (“+++” means <3 uM)
15,"Cc1cc(C)c(Oc2ncc(Cc3ccccc3)cc2C(=O)NS(=O)(=O)c2cccc(N)n2)c(C)c1 [Compound 1233, N-[(6-amino-2-pyridyl)sulfonyl]-5-benzyl-2-(2,4,6-trimethylphenoxy)pyridine-3-carboxamide]",++ (“++” means between 3 uM and 10 uM)
16,"CC(C)(C)c1cc(C(=O)NS(=O)(=O)c2cccc(N)c2)n(Cc2cccc3cc[nH]c23)n1 [Compound 1256, N-(3-aminophenyl)sulfonyl-5-tert-butyl-2-(1H-indol-7-ylmethyl)pyrazole-3-carboxamide]",++ (“++” means between 3 uM and 10 uM)
17,"Cc1ccc(-c2ccc(C(=O)NS(=O)(=O)c3cccc(N)n3)c(N3C[C@@H](C)CC3(C)C)n2)cc1F [Compound 1922, N-[(6-amino-2-pyridyl)sulfonyl]-6-(3-fluoro-4-methyl-phenyl)-2-[(4S)-2,2,4-trimethylpyrrolidin-1-yl]pyridine-3-carboxamide]",+++ (“+++” means <3 uM)
18,"CC1CN(c2ncccc2C(=O)NS(=O)(=O)c2cccc(N3CCN(C4CCCC4)CC3)n2)C(C)(C)C1 (stereo not shown) [Compound 1733, N—[[6-(4-cyclopentylpiperazin-1-yl)-2-pyridyl]sulfonyl]-2-(2,2,4-trimethylpyrrolidin-1-yl)pyridine-3-carboxamide]",++ (“++” means between 3 uM and 10 uM)
19,"CC(C)COc1cc(F)cc(-c2ccc(C(=O)NS(=O)(=O)c3cccc(N)n3)c(C3=CC(C)(C)OC3(C)C)n2)c1 [Compound 1531, N-[(6-amino-2-pyridyl)sulfonyl]-6-(3-fluoro-5-isobutoxy-phenyl)-2-(2,2,5,5-tetramethyl-3-furyl)pyridine-3-carboxamide]",++ (“++” means between 3 uM and 10 uM)
20,"CCO/C=C/c1cc(C(=O)NS(=O)(=O)c2cccc(N)n2)c(N2C[C@@H](C)CC2(C)C)nc1C(C)(C)C [Compound 1626, N-[(6-amino-2-pyridyl)sulfonyl]-6-tert-butyl-5-[(E)-2-ethoxyvinyl]-2-[(4S)-2,2,4-trimethylpyrrolidin-1-yl]pyridine-3-carboxamide]",+++ (“+++” means <3 uM)
21,"COc1ccc(-c2ccc(C(=O)NS(=O)(=O)c3cccnc3N)c(N3C[C@@H](C)CC3(C)C)n2)c(CO)c1 [Compound 1707, N-[(2-amino-3-pyridyl)sulfonyl]-6-[2-(hydroxymethyl)-4-methoxy-phenyl]-2-[(4S)-2,2,4-trimethylpyrrolidin-1-yl]pyridine-3-carboxamide]",++ (“++” means between 3 uM and 10 uM)
22,"CNc1cccc(S(=O)(=O)NC(=O)c2ccc(-c3ccccc3)nc2Oc2c(C)cc(C)cc2C)n1 [Compound 1032, N-[[6-(methylamino)-2-pyridyl]sulfonyl]-6-phenyl-2-(2,4,6-trimethylphenoxy)pyridine-3-carboxamide]",+++ (“+++” means <3 uM)
23,"CC(C)COc1cc(F)cc(-c2ccc(C(=O)NS(=O)(=O)c3cccc(N)n3)c(OCCc3ccncc3)n2)c1 [Compound 1605, N-[(6-amino-2-pyridyl)sulfonyl]-6-(3-fluoro-5-isobutoxy-phenyl)-2-[2-(4-pyridyl)ethoxy]pyridine-3-carboxamide]",+++ (“+++” means <3 uM)
24,"CC(C)Cn1cc(-c2ccc(C(=O)NS(=O)(=O)c3nccnc3N)c(N3CCC(C)CC3)n2)cn1 [Compound 1288, N-(3-aminopyrazin-2-yl)sulfonyl-6-(1-isobutylpyrazol-4-yl)-2-(4-methyl-1-piperidyl)pyridine-3-carboxamide]",++ (“++” means between 3 uM and 10 uM)
25,"COc1cc(Cl)ccc1-c1ccc(C(=O)NS(=O)(=O)c2cccc(N)n2)c(Oc2c(C)cc(C)cc2C)n1 [Compound 897, N-[(6-amino-2-pyridyl)sulfonyl]-6-(4-chloro-2-methoxy-phenyl)-2-(2,4,6-trimethylphenoxy)pyridine-3-carboxamide]",+++ (“+++” means <3 uM)
26,"COc1cc(-c2ccc(C(=O)NS(=O)(=O)c3ccc[nH]c3=O)c(N3C[C@@H](C)CC3(C)C)n2)ccc1F [Compound 1780, 6-(4-fluoro-3-methoxy-phenyl)-N-[(2-oxo-1H-pyridin-3-yl)sulfonyl]-2-[(4S)-2,2,4-trimethylpyrrolidin-1-yl]pyridine-3-carboxamide]",++ (“++” means between 3 uM and 10 uM)
27,"Cc1cc(C)c(Oc2nc(-c3cc(F)cc(OCC(C)C)c3)ccc2C(=O)NS(=O)(=O)c2cccc(CN)n2)c(C)c1 [Compound 871, N-[[6-(aminomethyl)-2-pyridyl]sulfonyl]-6-(3-fluoro-5-isobutoxy-phenyl)-2-(2,4,6-trimethylphenoxy)pyridine-3-carboxamide]",+++ (“+++” means <3 uM)
28,"CCOc1cc(C)cc(-c2ccc(C(=O)NS(=O)(=O)c3ccc[nH]c3=O)c(N3C[C@@H](C)CC3(C)C)n2)n1 [Compound 1745, 6-(6-ethoxy-4-methyl-2-pyridyl)-N-[(2-oxo-1H-pyridin-3-yl)sulfonyl]-2-[(4S)-2,2,4-trimethylpyrrolidin-1-yl]pyridine-3-carboxamide]",+++ (“+++” means <3 uM)
